Data: ChEMBL document CHEMBL3352580, “Teucrium polium phenylethanol and iridoid glycoside characterization and flavonoid inhibition of biofilm-forming Staphylococcus aureus” (2015)
Activity calls are given as the source filed them. The rule behind the calls is not given here.

Key:
[1] = tested on: Staphylococcus aureus; test: Inhibition of biofilm formation in Staphylococcus aureus AH133 transformed with GFP assessed as zone of inhibition at 16 mg/ml after 24 hrs by confocal laser scanning microscopy; type: functional; details: for zone of inhibition at 16000 µg/mL: AH133, 24 h, read-out: IZ
[2] = tested on: Staphylococcus aureus; test: Inhibition of biofilm formation in Staphylococcus aureus AH133 transformed with GFP assessed as zone of inhibition at 10 to 20 ug/disc after 24 hrs by confocal laser scanning microscopy; type: functional, organism-based
[3] = tested on: Staphylococcus aureus; test: Inhibition of biofilm formation in Staphylococcus aureus AH133 transformed with GFP assessed as reduction in recovery of CFU at 80 ug/disc after 24 hrs by confocal laser scanning microscopy; type: functional, organism-based
[4] = tested on: Staphylococcus aureus; test: Inhibition of biofilm formation in Staphylococcus aureus AH133 transformed with GFP assessed as zone of inhibition at 40 to 80 ug/disc after 24 hrs by confocal laser scanning microscopy; type: functional, organism-based

| SMILES | inhibition [1] | zone of inhibition at 16000 µg/mL [1] [mm] | inhibition [2] | inhibition [3] | inhibition [4] |
| --- | --- | --- | --- | --- | --- |
| CC1(C)S[C@@H]2[C@H](NC(=O)[C@H](N)c3ccccc3)C(=O)N2[C@H]1C(=O)O | Active |  |  |  |  |
| O=c1cc(-c2ccc(O)c(O)c2)oc2cc(O)c(O)c(O)c12 [6-HYDROXYLUTEOLIN] |  | 8 | inactive | Active | Active |
| COc1cc2oc(-c3ccc(O)c(O)c3)cc(=O)c2c(O)c1OC [CIRSILIOL] |  | 10.3 | inactive | Active | Active |
